According to patent publication US11524938B2, “Aromatic sulfonamide derivatives” (Bayer Pharma Aktiengesellschaft, priority 2016, dated 2022):
pIC50: −log10 of the molar value.

Target: T1, human P2X4 (Homo sapiens, UniProt Q99571)
T1 sequence (Q99571 1-388): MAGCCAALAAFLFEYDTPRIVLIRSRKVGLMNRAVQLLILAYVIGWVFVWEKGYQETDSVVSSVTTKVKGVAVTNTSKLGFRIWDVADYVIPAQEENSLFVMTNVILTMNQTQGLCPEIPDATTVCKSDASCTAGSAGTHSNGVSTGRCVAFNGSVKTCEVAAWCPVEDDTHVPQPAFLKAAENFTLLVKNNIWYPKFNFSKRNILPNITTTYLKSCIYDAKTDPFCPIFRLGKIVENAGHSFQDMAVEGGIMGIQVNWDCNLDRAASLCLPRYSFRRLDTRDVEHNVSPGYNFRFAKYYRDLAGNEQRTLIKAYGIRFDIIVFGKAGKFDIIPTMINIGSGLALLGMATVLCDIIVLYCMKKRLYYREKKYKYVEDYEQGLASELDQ
Test: Human P2X4 HEK Cell FLIPR Assay
Format: cell-based
Conditions: agonist Bz-ATP at EC80; for Emax: HEK293, HEK293 cells, percentage of maximal inhibition, read-out: Human P2X4 HEK Cells (FLIPR Assay) avg Efficacy [%]; for pIC50: HEK293 cells, individual values listed where some fall outside detection range
Summary of the method: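 HEK293 cells stably expressing human P2X4, Fluo8-AM loaded 30 min at 37° C, then compound 30 min at room temperature (0.5% DMSO, pH 7.4 buffer with 1.8 mM CaCl2). Bz-ATP at its daily-determined EC80 added; calcium fluorescence read over 120 sec; IC50 from peak RFU normalized to agonist control, triplicates.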

Emax [%]	pIC50	Structure (SMILES)
62	6.53	NS(=O)(=O)c1cc(NC(=O)Cc2cccc(F)c2)ccc1-n1cc(F)cn1 [Example 144, 2-(3-Fluorophenyl)-N-[4-(4-fluoro-1H-pyrazol-1-yl)-3-sulfamoylphenyl]acetamide]
49	< 4.60	NS(=O)(=O)c1cc(NC(=O)Cc2ccc(F)c(F)c2)ccc1-n1cc(F)cn1 [Example 145, 2-(3,4-Difluorophenyl)-N-[4-(4-fluoro-1H-pyrazol-1-yl)-3-sulfamoylphenyl]acetamide]
66	6.44	NS(=O)(=O)c1cc(NC(=O)Cc2cc(F)cc(F)c2)ccc1-n1cc(F)cn1 [Example 146, 2-(3,5-Difluorophenyl)-N-[4-(4-fluoro-1H-pyrazol-1-yl)-3-sulfamoylphenyl]acetamide]
63	6.88	NS(=O)(=O)c1cc(NC(=O)Cc2cccc(Cl)c2)ccc1-n1cc(F)cn1 [Example 148, 2-(3-Chlorophenyl)-N-[4-(4-fluoro-1H-pyrazol-1-yl)-3-sulfamoylphenyl]acetamide]
56	6.68	NS(=O)(=O)c1cc(NC(=O)Cc2ccc(F)cc2)ccc1-n1cc(F)cn1 [Example 149, 2-(4-Fluorophenyl)-N-[4-(4-fluoro-1H-pyrazol-1-yl)-3-sulfamoylphenyl]acetamide]
83	7.09	Cc1cccc(CC(=O)Nc2ccc(-n3cc(F)cn3)c(S(N)(=O)=O)c2)c1 [Example 151, N-[4-(4-Fluoro-1H-pyrazol-1-yl)-3-sulfamoylphenyl]-2-(3-methylphenyl)acetamide]
79	6.98	Cc1ccc(CC(=O)Nc2ccc(-n3cc(F)cn3)c(S(N)(=O)=O)c2)cc1 [Example 152, N-[4-(4-Fluoro-1H-pyrazol-1-yl)-3-sulfamoylphenyl]-2-(4-methylphenyl)acetamide]
86	6.97	NS(=O)(=O)c1cc(NC(=O)Cc2cccc(F)c2F)ccc1-n1cc(F)cn1 [Example 155, 2-(2,3-Difluorophenyl)-N-[4-(4-fluoro-1H-pyrazol-1-yl)-3-sulfamoylphenyl]acetamide]

Continued, molecule first:

Structure (SMILES)	Emax [%]	pIC50
COc1cccc(Cl)c1CC(=O)Nc1ccc(-n2cc(C(F)(F)F)cn2)c(S(N)(=O)=O)c1 [Example 142, 2-(2-Chloro-6-methoxyphenyl)-N-{3-sulfamoyl-4-[4-(trifluoromethyl)-1H-pyrazol-1-yl]phenyl}acetamide]	78	6.94
NS(=O)(=O)c1cc(NC(=O)Cc2c(F)cc(F)cc2Cl)ccc1-n1cc(C(F)(F)F)cn1 [Example 143, 2-(2-Chloro-4,6-difluorophenyl)-N-{3-sulfamoyl-4-[4-(trifluoromethyl)-1H-pyrazol-1-yl]phenyl}acetamide]	84	6.61
NS(=O)(=O)c1cc(NC(=O)Cc2ccccc2O)ccc1-n1cc(F)cn1 [Example 147, N-[4-(4-Fluoro-1H-pyrazol-1-yl)-3-sulfamoylphenyl]-2-(2-hydroxyphenyl)acetamide]	100	7.10
NS(=O)(=O)c1cc(NC(=O)Cc2ccc(O)cc2)ccc1-n1cc(F)cn1 [Example 150, N-[4-(4-Fluoro-1H-pyrazol-1-yl)-3-sulfamoylphenyl]-2-(4-hydroxyphenyl)acetamide]	80	6.36
COc1ccc(CC(=O)Nc2ccc(-n3cc(F)cn3)c(S(N)(=O)=O)c2)cc1 [Example 153, N-[4-(4-Fluoro-1H-pyrazol-1-yl)-3-sulfamoylphenyl]-2-(4-methoxyphenyl)acetamide]	74	6.74
Cc1ccccc1CC(=O)Nc1ccc(-n2cc(F)cn2)c(S(N)(=O)=O)c1 [Example 154, N-[4-(4-Fluoro-1H-pyrazol-1-yl)-3-sulfamoylphenyl]-2-(2-methylphenyl)acetamide]	84	7.52
CCOc1ccccc1CC(=O)Nc1ccc(-n2cc(F)cn2)c(S(N)(=O)=O)c1 [Example 156, 2-(2-Ethoxyphenyl)-N-[4-(4-fluoro-1H-pyrazol-1-yl)-3-sulfamoylphenyl]acetamide]	94	6.61
